Key:
RnfG [1] = target: T1, RnfG (Methanosarcina acetivorans, UniProt Q8TSY2); test: UV-visible absorbance of purified protein; UV fluorescence in SDS-PAGE gel; boiling and TCA treatment; type: binding; details: covalent (flavin assigned as FMN, attached at Thr166); 25 µM protein, 25 mM Tris-HCl pH 8
T1 construct: full-length membrane subunit with C-terminal His6 tag (vector leader removed), made in E. coli LMG194, purified from membranes in dodecyl maltoside; isolated subunit of the Rnf complex

RnfG [2] = target: T2, RnfG (Methanosarcina acetivorans, UniProt Q8TSY2, T166G); test: protein colour and UV fluorescence of the purified variant; type: binding; details: removal of the covalent FMN attachment residue
T2 construct: full-length membrane subunit with C-terminal His6 tag (vector leader removed), made in E. coli LMG194, purified from membranes in dodecyl maltoside; isolated subunit of the Rnf complex
T2 sequence (Q8TSY2 whole entry T166G): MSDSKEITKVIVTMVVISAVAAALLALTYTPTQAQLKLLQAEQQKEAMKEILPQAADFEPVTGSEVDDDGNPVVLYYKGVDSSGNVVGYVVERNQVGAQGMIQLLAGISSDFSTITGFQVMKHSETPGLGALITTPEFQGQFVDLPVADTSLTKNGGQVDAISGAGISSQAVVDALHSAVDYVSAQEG

T1 sequence (Q8TSY2 whole entry): as the sequence (Q8TSY2 whole entry T166G) above, with G166T counted along it

In the case of Cc1cc2nc3c(=O)[nH]c(=O)nc-3n(C[C@H](O)[C@H](O)[C@H](O)COP(=O)(O)O)c2cc1C [FMN], the “molar ratio of flavin” value (RnfG [1]) is reported as 0.84 mol/mol and the colour and fluorescence (RnfG [2]) is reported as “The purified variant was colorless and failed to fluoresce under UV illumination”.
